# Measurements as given in patent US11248024B2, “Noxa-derived, cell death-inducing peptide eMTD” (INDUSTRY-ACADEMIC COOPERATION FOUNDATION, CHOSUN UNIVERSITY, priority 2019, dated 2022).
# Ends that are not written are not given here. FAM = fluorescein
# Experiments:
# [1] = tested on: mitochondria isolated from livers of BalB/C mice; test: Mitochondrial swelling, absorbance at 540 nm / TEM; assay type: biochemical; conditions: peptides 25 μM, Ca2+ 200 μM, CsA 20 μM
# Description: First, livers excised from 6-week-old BalB/C mice were immersed in buffer (250 mM mannitol, […], 5 mM HEPES, pH 7.4, 0.1 mM PMSF and 4 rotenone) and completely homogenized using a Teflon Potter-Elvehjem grinder (Sigma). The ground liver was centrifuged at 1000×g for 10 min at 4° C. and the supernatants were centrifuged at 10,000×g for 10 min at 4° C. The pellets thus obtained were suspended in a regeneration buffer (250 mM sucrose, 10 mM HEPES, pH 7.4, 5 mM sodium succinate, 2 mM potassium phosphate, 0.1 mM PMSF, 25 μM EGTA, and 4 rotenone).
# The mitochondria thus obtained were treated with 25 μM of eMTD (SEQ ID NO: 1) or eMTDΔ4 (SEQ ID NO: 2), followed by reading absorbance at 540 nm to determine mitochondrial swelling.
# [2] = tested on: HeLa; test: MTS assay, relative cell viability, HeLa; assay type: cell-based, human; conditions: for Viability (%): one hour treatment, Table 3
# Description: Individual cell lines (HeLa, CT26, and B16F10) were purchased from the Korean Cell Line Bank. Dulbecco's modified Eagle's medium (DMEM), trypsin-EDTA, fetal bovine serum (FBS), and Hank's balanced salt solution (HBSS) were products from Gibco (Thermo Fisher).
# Each of the cell lines was cultured in DMEM supplemented with 10% FBS in an incubator maintained at 37° C. and 5% 002.
# For use in assaying the peptides eMTD (SEQ ID NO: 1) and eMTDΔ4 (SEQ ID NO: 2) synthesized in Example 1 for activity of inducing cell death, the cell line HeLa was grown to about 90% confluency in 96-well plates. The cells were washed once with HBSS buffer before treatment with the peptides of the present disclosure eMTD (SEQ ID NO: 1) and eMTDΔ4 (SEQ ID NO: 2) at concentrations of 0, 20, and 40 for one hour. Thereafter, the cells were incubated with an MTS assay agent (Promega) for one hour, followed by reading absorbance to calculate relative viability of cells.
# Examination was made to see whether the peptide has the activity of inducing cell death in other cancer cell lines. In this regard, the cancer cell lines HeLa, CT26, and B16F10 were treated with eMTDΔ4 (SEQ ID NO: 2) at concentrations of 0, 20, and 40 μM.
# [3] = Two-step assay, damage on lipid membrane of liposomes (TbCl3/DPA fluorescence); assay type: biochemical; conditions: for Relative Fluorescence Intensity: liposomes, excitation 276 nm, read at 490 nm
# Description: In brief, DOPS, DOPE, and DOPC (Avanti Polar Lipids) were dissolved at the ratio of 2:4:3 in chloroform, followed by vaporization. The residue was again dissolved at the concentration of 2 mg/mL in TbCl3 buffer (15 mM TbCl3, 50 mM sodium citrate, 20 mM HEPES, 150 mM NaCl, pH 7.4). The lipid mixture was extruded by Mini extruder (Avanti Polar Lipids) with a 400 nm to prepare liposomes which were washed with washing buffer (150 mM NaCl, 20 mM HEPES, pH 7.4) and then resuspended in an assay buffer (50 DPA, […], 20 mM HEPES, pH 7.4). The suspension was plated into 96-well plates and treated with 0, 10, or 25 μM of eMTD (SEQ ID NO: 1) or eMTDΔ4 (SEQ ID NO: 2). After stimulation with 276 nm laser, fluorescence was read at 490 nm.
# [4] = tested on: HeLa cells; test: Intracellular localization of FAM-labelled peptide, confocal images (TOM20, DAPI); assay type: cell-based, human; conditions: 5 and 10 min incubation, fixed
# Description: In order to investigate the source that allowed the intracellular calcium influx observed in Example 4, examination was made of the site at which the peptide eMTDΔ4 (SEQ ID NO: 2) acts. In this regard, the fluorescent tracer fluorescein was labeled to the C-terminal of the peptide eMTDΔ4 (SEQ ID NO: 2) (eMTDΔ4 (SEQ ID NO: 2)-FAM). Then, HeLa cells grown on Lab-Tek chamber glass were incubated with eMTDΔ4 (SEQ ID NO: 2)-FAM for 5 and 10 min before fixation with 1% paraformaldehyde.
# Mitochondria were visualized using an antibody to TOM20, which localizes to the outer membrane of the mitochondrion because MTD (SEQ ID NO: 3) is known to migrate to mitochondria, while nuclei were visualized using DAPI.
# [5] = tested on: HeLa cells; test: Time-lapse confocal microscopy of peptide entry, Mito-DsRed2 transfected cells; assay type: cell-based, human; conditions: images every five seconds for 10 min
# Description: In order to investigate the temporal order and cause relation between the introduction of eMTDΔ4 (SEQ ID NO: 2) and the damage of mitochondrial membrane and cell membrane, mitochondria were visualized by transfecting Mito-DsRed2 into HeLa cells one day before the experiment. Thereafter, eMTDΔ4 (SEQ ID NO: 2)-FAM was applied to the HeLa cells images of which were then taken every five seconds for 10 min under a confocal microscope.
compound,measurement,setting,value
"[Ca+2] [Ca, reference compound]","Mitochondrial swelling, relative absorbance at 540 nm",[1]; Minute 0,100%
same,"Mitochondrial swelling, relative absorbance at 540 nm",[1]; Minute 10,77%
same,"Mitochondrial swelling, relative absorbance at 540 nm",[1]; Minute 20,75%
same,"Mitochondrial swelling, relative absorbance at 540 nm",[1]; Minute 30,73%
same,"Mitochondrial swelling, relative absorbance at 540 nm",[1]; Minute 40,72%
same,"Mitochondrial swelling, relative absorbance at 540 nm",[1]; Minute 50,70%
same,"Mitochondrial swelling, relative absorbance at 540 nm",[1]; Minute 60,70%
KLNFRQKLLNLISKLFCSGT [eMTD],Viability (%),[2]; 20 μM,61%
same,Viability (%),[2]; 40 μM,63%
same,cell death activity (in words),[2]; FIG. 1 and Table 3,potent cell death activity
same,"Mitochondrial swelling, relative absorbance at 540 nm",[1]; Minute 0,100%
same,"Mitochondrial swelling, relative absorbance at 540 nm",[1]; Minute 10,86%
same,"Mitochondrial swelling, relative absorbance at 540 nm",[1]; Minute 20,78%
same,"Mitochondrial swelling, relative absorbance at 540 nm",[1]; Minute 30,71%
same,"Mitochondrial swelling, relative absorbance at 540 nm",[1]; Minute 40,68%
same,"Mitochondrial swelling, relative absorbance at 540 nm",[1]; Minute 50,68%
same,"Mitochondrial swelling, relative absorbance at 540 nm",[1]; Minute 60,67%
same,liposome lipid membrane damage (in words),[3]; FIGS. 10A to 10C and Table 6,higher fluorescence intensity was detected
same,Relative Fluorescence Intensity,[3]; 10 μM,27%
same,Relative Fluorescence Intensity,[3]; 25 μM,55%
eMTDΔ4-FAM: fluorescent tracer fluorescein labeled to the C-terminal of the peptide eMTDΔ4 (KLNFRQKLLNLISKLF-{FAM}),intracellular localization,[4],consistent with the visualized positions of mitochondria
same,mitochondrial morphology,[4],mitochondrial fragmentation was observed
same,entry of peptide into cells,[5],diffused into the cytosol through the cell membrane bubbles
"MPGKKARKNAQPSPARAPAELEVECATQLRRFGDKLNFRQKLLNLISKLFCSGT (cysteines drawn unpaired) [fl-Noxa, reference compound]",Viability (%),[2]; 20 μM,101%
same,Viability (%),[2]; 40 μM,106%
